Measured values reported in US20250296953A1, “3,4-THIAZOLO-STEROIDS AND METHODS OF MAKING AND USING THE SAME” (Arkansas State University - Jonesboro, priority 2018, published 2025).
Where two headings read alike, the source gives them in different places.

Assays:
glioblastoma (SF-295) = assay: NCI 60 five dose screen
[1] = test system: 60 different human tumor cell lines; conditions: for TGI: five dose
RPMI-8226 = assay: NCI 60 five dose screen
NCI-H522 (NSCLC) = assay: NCI 60 one dose screen; type: cell-based, human; conditions: Non-small Cell Lung Cancer
HCT-15 (Colon Cancer) = assay: NCI 60 one dose screen; type: cell-based, human
[2] = test system: 60 different human tumor cell lines; assay: NCI Development Therapeutics Program 60 cell line screen, one dose; type: cell-based
SR = assay: NCI 60 five dose screen
SF-539 = assay: NCI 60 one dose screen; type: cell-based, human; conditions: one dose; CNS Cancer; SF-539

Compound: C[C@]12CCc3sc(Nc4cccc(O)c4)nc3C1=CC[C@@H]1[C@@H]2CC[C@]2(C)C(=O)CC[C@@H]12 [IIa.17, (1S,2R,13R,14S,18S)-7-(3-hydroxyanilino)-2,18-dimethyl-6-thia-8-azapentacyclo[11.7.0.02,10.05,9.014,18]icosa-5(9),7,10-trien-17-one]
- GI50 (glioblastoma (SF-295); Homo sapiens, SF-295): 8.98 µM
- CC50 (glioblastoma (SF-295); Homo sapiens, SF-295, read-out: LC50): > 100 µM
- TGI (glioblastoma (SF-295); SF-295 (CNS Cancer), five dose): >1.00E−4
- LC50 [1]: >l.00E−4
- TGI ([1]; 786-0 (Renal Cancer)): 1.31E−5
- TGI ([1]; A498 (Renal Cancer)): >1.00E−4
- TGI ([1]; A549/ATCC (Non-small Cell Lung Cancer)): >1.00E−4
- TGI ([1]; ACHN (Renal Cancer)): 2.95E−5
- TGI ([1]; CAKI-1 (Renal Cancer)): 3.02E−5
- TGI ([1]; CCRF-CEM (Leukemia)): >1.00E−4
- TGI ([1]; COLO 205 (Colon Cancer)): 3.74E−5
- TGI ([1]; DU-145 (Prostate Cancer)): 4.09E−5
- TGI ([1]; EKVX (Non-small Cell Lung Cancer)): >1.00E−4
- TGI ([1]; HCC-2998 (Colon Cancer)): 4.48E−5
- TGI ([1]; HCT-15 (Colon Cancer)): 9.71E−6
- TGI ([1]; HCT-116 (Colon Cancer)): 4.17E−6
- TGI ([1]; HOP-62 (Non-small Cell Lung Cancer)): >1.00E−4
- TGI ([1]; HOP-92 (Non-small Cell Lung Cancer)): 6.79E−5
- TGI ([1]; HS 578T (Breast Cancer)): >1.00E−4
- TGI ([1]; HT29 (Colon Cancer)): 1.76E−5
- TGI ([1]; IGROV1 (Ovarian Cancer)): >1.00E−4
- TGI ([1]; K-562 (Leukemia)): >1.00E−4
- TGI ([1]; KM12 (Colon Cancer)): 2.94E−5
- TGI ([1]; LOX IMVI (Melanoma)): 1.08E−5
- TGI ([1]; M14 (Melanoma)): 5.09E−5
- TGI ([1]; MALME-3M (Melanoma)): >1.00E−4
- TGI ([1]; MCF7 (Breast Cancer)): 3.28E−5
- TGI ([1]; MDA-MB-231/ATCC (Breast Cancer)): >1.00E−4
- TGI ([1]; MDA-MB-435 (Melanoma)): >1.00E−4
- TGI ([1]; MDA-MB-468 (Breast Cancer)): 1.46E−5
- TGI ([1]; MOLT-4 (Leukemia)): >1.00E−4
- TGI ([1]; NCI-H23 (Non-small Cell Lung Cancer)): >1.00E−4
- TGI ([1]; NCI-H226 (Non-small Cell Lung Cancer)): 4.50E−5
- TGI ([1]; NCI-H322M (Non-small Cell Lung Cancer)): >1.00E−4
- TGI ([1]; NCI-H460 (Non-small Cell Lung Cancer)): 2.79E−5
- TGI ([1]; NCI-H522 (Non-small Cell Lung Cancer)): 2.36E−5
- TGI ([1]; NCI/ADR-RES (Ovarian Cancer)): >1.00E−4
- TGI ([1]; OVCAR-3 (Ovarian Cancer)): 5.08E−5
- TGI ([1]; OVCAR-4 (Ovarian Cancer)): >1.00E−4
- TGI ([1]; OVCAR-5 (Ovarian Cancer)): >1.00E−4
- TGI ([1]; OVCAR-8 (Ovarian Cancer)): >1.00E−4
- TGI ([1]; PC-3 (Prostate Cancer)): 6.37E−5
- TGI ([1]; RXF 393 (Renal Cancer)): 1.42E−5
- TGI ([1]; SF-268 (CNS Cancer)): 7.00E−5
- TGI ([1]; SK-MEL-2 (Melanoma)): 6.08E−5
- TGI ([1]; SK-MEL-5 (Melanoma)): 2.60E−5
- TGI ([1]; SK-MEL-28 (Melanoma)): >1.00E−4
- TGI ([1]; SK-OV-3 (Ovarian Cancer)): >1.00E−4
- TGI ([1]; SN12C (Renal Cancer)): 2.53E−5
- TGI ([1]; SNB-19 (CNS Cancer)): >1.00E−4
- TGI ([1]; SNB-75 (CNS Cancer)): 7.25E−5
- TGI ([1]; SW-620 (Colon Cancer)): 1.56E−5
- TGI ([1]; T-47D (Breast Cancer)): >1.00E−4
- TGI ([1]; TK-10 (Renal Cancer)): 5.48E−5
- TGI ([1]; U251 (CNS Cancer)): 1.93E−5
- TGI ([1]; UACC-62 (Melanoma)): 2.96E−4
- TGI ([1]; UACC-257 (Melanoma)): 9.45E−5
- TGI ([1]; UO-31 (Renal Cancer)): 1.94E−5
- GI50 (RPMI-8226; Homo sapiens, RPMI-8226): 2.73 µM
- CC50 (RPMI-8226; Homo sapiens, RPMI-8226, read-out: LC50): > 100 µM
- TGI (RPMI-8226; RPMI-8226 (Leukemia), five dose): 7.44E−6
- Growth Percent (NCI-H522 (NSCLC)): −56.41%
- Growth Percent (HCT-15 (Colon Cancer)): −47.90%
- Growth Percent ([2]; Breast Cancer, BT-549): 17.42%
- Growth Percent ([2]; Breast Cancer, HS 578T): 7.41%
- Growth Percent ([2]; Breast Cancer, MCF7): −25.89%
- Growth Percent ([2]; Breast Cancer, MDA-MB-231/ATCC): 39.51%
- Growth Percent ([2]; Breast Cancer, MDA-MB-468): 32.20%
- Growth Percent ([2]; Breast Cancer, T-47D): −8.55%
- Growth Percent ([2]; CNS Cancer, SF-268): 43.09%
- Growth Percent ([2]; CNS Cancer, SNB-19): 57.90%
- Growth Percent ([2]; CNS Cancer, SNB-75): 37.28%
- Growth Percent ([2]; CNS Cancer, U251): 18.85%
- Growth Percent ([2]; Colon Cancer, COLO 205): 34.38%
- Growth Percent ([2]; Colon Cancer, HCC-2998): 81.46%
- Growth Percent ([2]; Colon Cancer, HCT-116): −23.66%
- Growth Percent ([2]; Colon Cancer, HT29): −29.01%
- Growth Percent ([2]; Colon Cancer, KM12): 34.70%
- Growth Percent ([2]; Colon Cancer, SW-620): −4.13%
- Growth Percent ([2]; Leukemia, CCRF-CEM): 12.99%
- Growth Percent ([2]; Leukemia, HL-60(TB)): 45.99%
- Growth Percent ([2]; Leukemia, K-562): 4.81%
- Growth Percent ([2]; Leukemia, MOLT-4): 5.52%
- Growth Percent ([2]; Leukemia, RPMI-8226): −13.60%
- Growth Percent ([2]; Leukemia, SR): 3.61%
- Growth Percent ([2]; Melanoma, LOX IMVI): −52.69%
- Growth Percent ([2]; Melanoma, M14): 54.77%
- Growth Percent ([2]; Melanoma, MALME-3M): 35.26%
- Growth Percent ([2]; Melanoma, MDA-MB-435): 42.59%
- Growth Percent ([2]; Melanoma, SK-MEL-2): 29.07%
- Growth Percent ([2]; Melanoma, SK-MEL-5): 64.76%
- Growth Percent ([2]; Melanoma, SK-MEL-28): 41.25%
- Growth Percent ([2]; Melanoma, UACC-62): 28.83%
- Growth Percent ([2]; Melanoma, UACC-257): 79.56%
- Growth Percent ([2]; Non-small Cell Lung Cancer, A549/ATCC): 55.43%
- Growth Percent ([2]; Non-small Cell Lung Cancer, EKVX): 71.36%
- Growth Percent ([2]; Non-small Cell Lung Cancer, HOP-62): 27.50%
- Growth Percent ([2]; Non-small Cell Lung Cancer, HOP-92): 64.31%
- Growth Percent ([2]; Non-small Cell Lung Cancer, NCI-H23): 63.65%
- Growth Percent ([2]; Non-small Cell Lung Cancer, NCI-H226): 94.46%
- Growth Percent ([2]; Non-small Cell Lung Cancer, NCI-H322M): 72.84%
- Growth Percent ([2]; Non-small Cell Lung Cancer, NCI-H460): 43.90%
- Growth Percent ([2]; Ovarian Cancer, IGROV1): −12.12%
- Growth Percent ([2]; Ovarian Cancer, NCI/ADR-RES): 78.93%
- Growth Percent ([2]; Ovarian Cancer, OVCAR-3): −3.79%
- Growth Percent ([2]; Ovarian Cancer, OVCAR-4): 52.06%
- Growth Percent ([2]; Ovarian Cancer, OVCAR-5): 109.51%
- Growth Percent ([2]; Ovarian Cancer, OVCAR-8): 17.89%
- Growth Percent ([2]; Ovarian Cancer, SK-OV-3): 37.28%
- Growth Percent ([2]; Prostate Cancer, DU-145): 12.72%
- Growth Percent ([2]; Prostate Cancer, PC-3): 28.08%
- Growth Percent ([2]; Renal Cancer, 786-0): −0.52%
- Growth Percent ([2]; Renal Cancer, ACHN): 5.12%
- Growth Percent ([2]; Renal Cancer, CAKI-1): 37.11%
- Growth Percent ([2]; Renal Cancer, RXF 393): −6.67%
- Growth Percent ([2]; Renal Cancer, SN12C): 46.55%
- Growth Percent ([2]; Renal Cancer, TK-10): 10.18%
- Growth Percent ([2]; Renal Cancer, UO-31): 22.19%
- GI50 (SR; Homo sapiens, SR): 2.58 µM
- CC50 (SR; Homo sapiens, SR, read-out: LC50): > 100 µM
- TGI (SR; SR (Leukemia), five dose): >1.00E−4
- Growth Percent (SF-539): −41.82%
